Assay results published in article PMC7005646, “Overcoming resistance to anabolic SARM therapy in experimental cancer cachexia with an HDAC inhibitor” (EMBO Molecular Medicine, 2020).

What was measured:
LLC tumor‐bearing mice = assay: AR‐42/GTx‐024 combination study in the LLC cachexia model (Study 5); type: in vivo, mouse; conditions: repeat of Study 5; 10 mg/kg AR‐42, 0.5 mg/kg GTx‐024, or both
Experimental: This study was performed as previously described (Tseng et al, 2015a) with modifications. Tumors were established in the right hindlimb of male C57BL/6NHsd mice by intramuscular injection of LLC cells (0.5 × 10^6 cells in 0.05 ml). Similar to Study 3, the tumor‐free control group was maintained at six animals, whereas 12 animals were included in each of the tumor‐bearing groups. […] Grip strength, body weight, and food consumption were measured, and tissues were collected as in the previous C‐26 studies.

tumor‐free mice = system: tumor‐free mice; design: method as in Tseng et al, 2015a; conditions: ref Tseng et al, 2015a, cited from earlier work
[1] = system: atrogin‐1, MuRF‐1, CEBPδ expression; assay: qRT–PCR of atrophy‐related genes in gastrocnemius, Study 1; type: in vivo, mouse; conditions: GTx‐024 15 mg/kg, AR‐42 10 mg/kg, or both
Experimental: To generate muscle tissue RNA, 15 mg of gastrocnemius muscle tissue was lysed in 10 volumes of lysis buffer per tissue mass in prefilled 2.0‐ml tubes with 3.0 mm zirconium beads (MIDSCI; St. Louis, MO). Tubes were loaded into BeadBlaster™ 24 (MIDSCI; St. Louis, MO) and […] for five cycles of 5 s with a 30‐s pause between cycles. Lysate was collected, and RNA was isolated using the mirVana™ miRNA Isolation Kit, with phenol (Thermo Fisher; Waltham, MA). Samples were treated with DNA‐free DNA Removal Kit to eliminate any DNA contamination (Invitrogen, Carlsbad, CA). Total RNA (0.5 μg) was reverse‐transcribed using high‐capacity cDNA reverse transcription kit (Applied Biosystems, Foster City, CA) for 10 min at 25°C, 120 min at 37°C, and 5 min at 85°C (T100™ Thermal Cycler, Bio‐Rad). Real‐time qPCR was performed on the QuantStudio 7 system (Applied Biosystems, Foster City, CA) using the powerup SYBR Green Master Mix (Applied Biosystems, Foster City, CA). Cycling was performed using the QuantStudio 7 real‐time PCR software—2 min at 50°C and 10 min at 95°C—followed by 40 cycles of 15 s at 95°C and 1 min at 60°C. […] As transformed expression data are not normally distributed, statistical differences between treatment groups were determined by one‐way ANOVA followed by Dunnett's test on raw delta C t values.

[2] = AR‐42 plasma and tissue pharmacokinetics, single oral dose, tumor‐free CD2F1 mice; type: in vivo, mouse; conditions: for Plasma exposure: mouse
Experimental: Pharmacokinetic studies were performed as previously described (Cheng et al, 2016) with the following modifications. Seven week‐old, male, tumor‐free CD2F1 mice (n = 3 per dose and time point) were administered single oral doses of 10, 20, and 50 mg/kg AR‐42 and then sacrificed 0.25, 4, and 24 h later. Fifty milligrams of gastrocnemius muscle tissue was flash‐frozen in 2 ml BeadBlaster™ 24 (MIDSCI; St. Louis, MO) tubes and stored at −80°C. Samples were homogenized for 6 cycles using a BeadBlaster 24 with analytical standards in 1 mL methanol and then centrifuged at 15,600 g (4°C) for 10 min. Supernatants were transferred to glass tubes, dried under nitrogen, and then reconstituted in 200 μl 40% methanol/0.1% formic acid. Plasma preparation and LC‐MS/MS analyses were performed as previously described (Sborov et al, 2017). Mouse plasma and muscle pharmacokinetic parameters were estimated as previously described with the exception of Cavg, which was calculated as AUCall/[dosing interval(h)].

## CC(C)[C@H](C(=O)Nc1ccc(C(=O)NO)cc1)c1ccccc1 [AR‐42]
LLC tumor‐bearing mice
  response of body weight and skeletal muscle mass loss: did not respond
tumor‐free mice; oral gavage every other day
  maximally tolerated dose in mice: 50 mg/kg
tumor‐free mice; tumor‐free mice, 50 mg/kg every other day
  effect on lower limb skeletal muscle masses relative to controls: no significant effects on lower limb skeletal muscle masses
tumor‐free mice; tumor‐free mice, 50 mg/kg oral every other day
  reduction in epididymal adipose tissue masses: ~50%
[1]
  atrogin‐1, MuRF‐1, CEBPδ expression in gastrocnemius relative to tumor‐bearing controls: significantly reduced
[2]; 10 mg/kg oral, Muscle
  AUCall: 11,076.7 nM*h
  Cavg: 461.5 nM
  Cmax: 1.11 µM
[2]; 10 mg/kg oral, Plasma
  AUCall: 10,931.6 nM*h
  Cmax: 1.5 µM
[2]; 10 mg/kg oral, Plasma, AUCall/dosing interval
  Cavg: 455.5 nM
[2]; 10 mg/kg oral, remained above for 4 h
  gastrocnemius muscle concentration: above 700 nM
[2]; 20 mg/kg oral, Muscle
  AUCall: 36,504.2 nM*h
  Cavg: 1,521.0 nM
  Cmax: 3.66 µM
[2]; 20 mg/kg oral, Plasma
  AUCall: 34,369.3 nM*h
  Cavg: 1,432.1 nM
  Cmax: 3.86 µM
[2]; 50 mg/kg oral, Muscle
  AUCall: 72,624.7 nM*h
  Cavg: 3,026.2 nM
  Cmax: 6.37 µM
[2]; 50 mg/kg oral, Plasma
  AUCall: 74,307.3 nM*h
  Cavg: 3,096.1 nM
  Cmax: 7.93 µM
[2]; 74.3 vs 8.5 μM*h
  mouse plasma exposure at 50 mg/kg over well‐tolerated human exposure: 8.7 fold
[2]; single oral dose 10 mg/kg
  Plasma exposure: 10.9 µM·h
[2]; single oral dose 50 mg/kg
  Plasma exposure: 74.3 µM·h
